According to US12551524B2 (U.S. NUTRACEUTICALS, INC., priority 2021, dated 2026):

Key:
[1] = system: men with mild to moderate androgenic alopecia; conditions: 1 milligram per day, 24 months, 100 men; cited from earlier work
[2] = system: normal shaved mice; conditions: after about 20 days; cited from earlier work
[3] = target: T1, 5α-Reductase Type 1 enzyme (Homo sapiens, UniProt P18405); test: Inhibition of 5α-Reductase Type 1; type: biochemical
T1 sequence (P18405 1-259): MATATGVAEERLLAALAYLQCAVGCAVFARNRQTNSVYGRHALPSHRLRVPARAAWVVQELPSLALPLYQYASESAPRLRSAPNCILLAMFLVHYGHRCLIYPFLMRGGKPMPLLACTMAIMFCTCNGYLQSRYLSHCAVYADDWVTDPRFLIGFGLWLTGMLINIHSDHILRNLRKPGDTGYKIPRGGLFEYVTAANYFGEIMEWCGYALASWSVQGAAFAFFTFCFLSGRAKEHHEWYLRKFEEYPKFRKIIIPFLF
Excerpt: (§1) The different free fatty acids of medium and long saturated chains and long unsaturated chains are shown, together with esterified fatty acids, oxidized fatty acids, fatty alcohols, phytosterols, and other components. The magnitude of the activity is designated by “none,” “moderate” or “very active” (FIG. 3). The various constituents shown in the table of FIG. 2 are also shown and listed as free fatty acid molecules with: a) medium, saturated chains, b) long, saturated chains, and c) long unsaturated chains. There are esterified fatty acids, oxidized fatty acids, and fatty alcohols. These tables support other evidence that the five active free fatty acids for prostate and hair health are lauric, myristic, oleic, linoleic and linolenic free fatty acids.
Reference is now made to FIGS. 7B and 7C showing the use of a supercritical CO2 extracted LSESr and Permixon®.

[4] = target: T2, 5α-Reductase Type 2 enzyme (Homo sapiens, UniProt P31213); test: Inhibition of 5α-Reductase Type 2 (Inhibition Experiments 1 and 2); type: biochemical
T2 sequence (P31213 1-254): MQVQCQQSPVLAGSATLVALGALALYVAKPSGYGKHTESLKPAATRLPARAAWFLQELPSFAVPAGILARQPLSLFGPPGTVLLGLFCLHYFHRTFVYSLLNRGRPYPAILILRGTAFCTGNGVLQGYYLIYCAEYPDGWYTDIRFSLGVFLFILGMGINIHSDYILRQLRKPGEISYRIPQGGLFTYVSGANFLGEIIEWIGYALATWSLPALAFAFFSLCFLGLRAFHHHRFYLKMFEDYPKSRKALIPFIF
Excerpt: as §1
Data are shown in the graphs and bar charts of FIGS. 5 and 6 where data are reported as the effectiveness to inhibit enzyme activity (IC50). […]
Inhibition Experiment 2 shown in FIG. 6 determined the possible impact of Permixon® product matrix (PEG) on an in vitro assay and the pegylated and conventional ultra-high purity supercritical CO2 extract having the PEG matrix (U4602-PEG) was compared to the commercially available Permixon® and the conventional unpegylated product (U4602) for their ability to inhibit the 5α-Reductase 2 enzyme. […]

## CC(C)(C)NC(=O)[C@H]1CC[C@H]2[C@@H]3CC[C@H]4NC(=O)C=C[C@]4(C)[C@H]3CC[C@]12C [finasteride]
[1]
  men who noted an improvement: 68%

## CCCCC/C=C\C/C=C\CCCCCCCC(=O)O [linoleic acid]
[2]
  hair growth: about 100%

## CCCCCCCC/C=C\CCCCCCCC(=O)O [oleic acid]
[3]
  effect on 5α-Reductase-1 (in words): especially effective
[4]
  effect on 5α-Reductase-2 (in words): not as much
